Laboratory results as given in US6291678A, “Process for the preparation of chiral keto-heterocycles of basic amino acids” (Warner-Lambert Company, priority 1998, dated 2001).

How the values were obtained:
[1] = target: T1, trypsin (Bos taurus, UniProt P00760); assay: Trypsin inhibitory activity (chromogenic substrate S2222); type: biochemical; details: protocol similar to thrombin
T1 sequence (P00760 24-246): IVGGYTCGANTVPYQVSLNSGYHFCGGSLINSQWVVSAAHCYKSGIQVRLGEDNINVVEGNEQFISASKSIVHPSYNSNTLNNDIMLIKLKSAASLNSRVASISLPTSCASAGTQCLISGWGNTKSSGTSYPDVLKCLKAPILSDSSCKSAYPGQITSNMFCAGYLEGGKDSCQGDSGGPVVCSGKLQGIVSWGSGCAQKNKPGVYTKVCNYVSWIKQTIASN
Experimental: The ability of compounds to act as inhibitors of thrombin catalytic activity is assessed by determination of that concentration of test substance that inhibits by 50% (IC50) the ability of thrombin to cleave the chromogenic substrate S-2238 (H-D-Phe-L-Pip-L-Arg-p-nitroanilide.2 HCl). Typically thrombin in 10 mM HEPES, 100 mM NaCl, 0.05% BSA, and 0.1% PEG-8000 and the test substance in DMSO are incubated for 60 minutes at room temperature. To this mixture is added S-2238 and the velocity of S-2238 hydrolysis measured by observing the intensity of absorbance at 405 nm over 5 minutes.
A similar protocol is followed to access the trypsin inhibitory activity of the test substances, except thrombin is replaced by trypsin and the chromogenic substrate is S2222 (N-Bz-L-Ile-L-Glu-L-Gly-L-Arg-p-nitroanilide.HCl).

[2] = tested on: rat carotid artery; assay: Rat arterial model of thrombosis (FeCl3 injury of the carotid artery), markers of anticoagulant activity in vivo; details: for Fold Shift in aPTT: activated partial thromboplastin time at 30 minute time point, control aPTT 15 s; for Fold Shift in aPTT / Fold Shift in TT: loading dose 0.75 mg/kg plus infusion of 50 μg/kg/min; for Fold Shift in MOT: mean occlusion time, loading dose 0.75 mg/kg plus continual infusion of 50 μg/kg/min, control MOT 20 minutes; for Fold Shift in TT: thrombin time at 30 minute time point, control TT 30 s
Experimental: The ability of compounds to affect markers of anticoagulant activity in vivo were assessed in a rat arterial model of thrombosis. This model requires injury of the rat carotid artery by the application of a FeCl3 solution. Typically test substances are administered by applying a loading dose of 0.75 mg/kg plus continual infusion of 50 μg/kg/min.
The fold shift in aPTT and TT are measured at a 30 minute time point.

[3] = target: thrombin (Homo sapiens, UniProt P00734); assay: Inhibition of thrombin catalytic activity (cleavage of chromogenic substrate S-2238); type: biochemical; details: S-2238 substrate; 60 minutes incubation at room temperature; absorbance at 405 nm over 5 minutes
Experimental: Typically thrombin in 10 mM HEPES, 100 mM NaCl, 0.05% BSA, and 0.1% PEG-8000 and the test substance in DMSO are incubated for 60 minutes at room temperature.

Compound | IC50 [1] | Fold Shift in aPTT [2] | Fold Shift in MOT [2] | Fold Shift in TT [2] | IC50 [3]
N=C(N)NCCC[C@H](NC(=O)[C@@H]1CC[C@H]2CN(C(=O)CCc3ccccc3)CC(=O)N21)C(=O)c1nccs1 [A] | 1 nM | 3.2 | 2.4 | 13 | 5 nM
N=C(N)N1CCC[C@@H](C[C@H](NC(=O)[C@@H]2CC[C@H]3CN(C(=O)CCc4ccccc4)CC(=O)N32)C(=O)c2nccs2)C1 [B] | 4350 nM | 3.1 | > 3 | 15 | 30 nM
